Laboratory results from ChEMBL document CHEMBL1123136, “Difluorostatine- and difluorostatone-containing peptides as potent and specific renin inhibitors” (J Med Chem, 1985).
Non-standard residues stand in square brackets, D forms with d. Residues, ends and D or L forms follow the SMILES beside them. *: point of attachment. Sta = CC(C)C[C@H](N)[C@@H](O)CC(=O)O; NHCH2(2-pyridyl) = c1ccc(CN*)nc1; Boc = CC(C)(C)OC(=O)*

Legend:
[1] = biological target: T1, Angiotensin-converting enzyme (Oryctolagus cuniculus, UniProt P12822); test: Inhibitory activity was evaluated against Angiotensin I converting enzyme activity in rabbit
T1 sequence (P12822 whole entry): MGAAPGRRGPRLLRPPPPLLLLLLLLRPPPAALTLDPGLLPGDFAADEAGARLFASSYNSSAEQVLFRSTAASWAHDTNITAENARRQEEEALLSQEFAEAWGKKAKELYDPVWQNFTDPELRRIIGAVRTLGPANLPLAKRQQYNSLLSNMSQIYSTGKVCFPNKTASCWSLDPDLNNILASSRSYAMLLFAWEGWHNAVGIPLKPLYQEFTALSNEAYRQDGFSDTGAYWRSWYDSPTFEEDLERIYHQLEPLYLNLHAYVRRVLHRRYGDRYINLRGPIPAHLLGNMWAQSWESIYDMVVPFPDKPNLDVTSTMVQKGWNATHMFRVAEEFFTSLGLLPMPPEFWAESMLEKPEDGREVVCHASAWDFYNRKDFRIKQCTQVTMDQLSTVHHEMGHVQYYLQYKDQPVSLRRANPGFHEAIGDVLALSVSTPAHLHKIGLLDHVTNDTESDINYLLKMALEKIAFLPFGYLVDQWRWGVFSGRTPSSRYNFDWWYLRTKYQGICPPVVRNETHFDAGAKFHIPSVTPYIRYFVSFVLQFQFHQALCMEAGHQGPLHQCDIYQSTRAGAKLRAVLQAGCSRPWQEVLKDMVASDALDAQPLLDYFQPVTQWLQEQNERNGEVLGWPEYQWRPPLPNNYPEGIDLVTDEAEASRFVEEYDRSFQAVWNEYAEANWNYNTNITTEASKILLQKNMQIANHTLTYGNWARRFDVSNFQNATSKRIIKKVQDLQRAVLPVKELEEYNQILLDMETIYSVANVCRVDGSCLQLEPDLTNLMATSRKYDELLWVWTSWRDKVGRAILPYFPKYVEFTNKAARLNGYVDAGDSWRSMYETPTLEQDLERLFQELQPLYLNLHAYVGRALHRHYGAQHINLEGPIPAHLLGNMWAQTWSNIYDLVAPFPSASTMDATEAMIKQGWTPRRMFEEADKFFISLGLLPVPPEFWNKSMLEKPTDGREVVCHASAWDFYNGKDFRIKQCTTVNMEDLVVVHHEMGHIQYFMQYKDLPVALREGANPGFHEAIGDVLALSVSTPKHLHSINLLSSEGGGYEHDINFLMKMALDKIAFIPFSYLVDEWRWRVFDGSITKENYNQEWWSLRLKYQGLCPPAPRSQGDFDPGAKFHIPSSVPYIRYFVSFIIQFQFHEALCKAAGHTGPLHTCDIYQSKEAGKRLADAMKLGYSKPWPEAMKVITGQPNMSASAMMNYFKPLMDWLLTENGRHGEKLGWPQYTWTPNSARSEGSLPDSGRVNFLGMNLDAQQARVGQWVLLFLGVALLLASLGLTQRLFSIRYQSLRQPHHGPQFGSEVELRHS

Pepsin A = Pepsin A (Sus scrofa, UniProt P00791); test: Inhibitory activity was evaluated against pepsin using porcine pepsin (sigma), porcine hemoglobin (sigma) and 0.02 M KCl-HCl buffer (pH 2)
Renin = biological target: T2, Renin (Homo sapiens, UniProt P00797); test: Plasma renin inhibitory activity was evaluated in lyophilized human plasma with 0.1%EDTA; type: cell-free
T2 sequence (P00797 whole entry): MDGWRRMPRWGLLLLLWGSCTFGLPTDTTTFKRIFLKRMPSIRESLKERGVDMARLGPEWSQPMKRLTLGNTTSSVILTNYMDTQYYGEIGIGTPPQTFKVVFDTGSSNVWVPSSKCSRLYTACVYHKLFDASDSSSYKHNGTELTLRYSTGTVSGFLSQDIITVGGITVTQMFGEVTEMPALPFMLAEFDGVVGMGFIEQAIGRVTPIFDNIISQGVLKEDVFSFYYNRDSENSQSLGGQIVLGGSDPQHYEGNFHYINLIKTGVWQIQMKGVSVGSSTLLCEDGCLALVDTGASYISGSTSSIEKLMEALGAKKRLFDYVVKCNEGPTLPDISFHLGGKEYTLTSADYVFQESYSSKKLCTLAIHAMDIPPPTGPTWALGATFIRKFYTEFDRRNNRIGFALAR

Pepsin A, sequence (P00791 whole entry): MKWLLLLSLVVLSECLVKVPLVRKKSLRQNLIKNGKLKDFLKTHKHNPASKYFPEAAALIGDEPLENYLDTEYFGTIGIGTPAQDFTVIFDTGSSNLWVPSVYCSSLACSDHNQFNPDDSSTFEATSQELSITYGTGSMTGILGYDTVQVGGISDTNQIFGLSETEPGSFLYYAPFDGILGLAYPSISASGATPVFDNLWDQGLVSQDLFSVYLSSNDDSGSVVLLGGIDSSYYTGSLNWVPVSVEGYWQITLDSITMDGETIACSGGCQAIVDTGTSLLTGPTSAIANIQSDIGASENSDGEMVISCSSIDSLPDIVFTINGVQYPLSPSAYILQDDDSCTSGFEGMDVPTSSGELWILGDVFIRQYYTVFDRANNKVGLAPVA

| Compound | IC50 (Renin) [µM] | also measured |
| --- | --- | --- |
| H-PHPFHFFVYK-OH [RIP] | – | IC50 [1]: 12 µM |
| CC(C)CC(=O)N[C@H](C(=O)N[C@H](C(=O)N[C@@H](CC(C)C)[C@@H](O)CC(=O)N[C@@H](C)C(=O)N[C@@H](CC(C)C)[C@@H](O)CC(=O)O)C(C)C)C(C)C [PEPSTATIN] | – | IC50 (Pepsin A): 0.01 µM |
| CC[C@H](C)[C@H](NC(=O)CC(=O)[C@H](CC(C)C)NC(=O)[C@H](Cc1c[nH]cn1)NC(=O)[C@H](Cc1ccccc1)NC(=O)OC(C)(C)C)C(=O)NCc1ccccn1 | 0.034 | – |
| CC[C@H](C)[C@H](NC(=O)C(F)(F)[C@@H](O)[C@H](CC(C)C)NC(=O)[C@H](Cc1c[nH]cn1)NC(=O)[C@H](Cc1ccccc1)NC(=O)OC(C)(C)C)C(=O)NCc1ccccn1 | 0.73 | – |

Further lines, with some results ahead:

| IC50 (Renin) [µM] | Compound | also measured |
| --- | --- | --- |
| 0.0017 | CC[C@H](C)[C@H](NC(=O)C[C@H](O)[C@H](CC(C)C)NC(=O)[C@H](Cc1c[nH]cn1)NC(=O)[C@H](Cc1ccccc1)NC(=O)OC(C)(C)C)C(=O)NCc1ccccn1 (Boc-FH[Sta]I-{NHCH2(2-pyridyl)}) | – |
| 0.00052 | CC[C@H](C)[C@H](NC(=O)C(F)(F)C(=O)[C@H](CC(C)C)NC(=O)[C@H](Cc1c[nH]cn1)NC(=O)[C@H](Cc1ccccc1)NC(=O)OC(C)(C)C)C(=O)NCc1ccccn1 | – |
| 0.012 | CC[C@H](C)[C@H](NC(=O)C(F)(F)[C@H](O)[C@H](CC(C)C)NC(=O)[C@H](Cc1c[nH]cn1)NC(=O)[C@H](Cc1ccccc1)NC(=O)OC(C)(C)C)C(=O)NCc1ccccn1 | – |
